Experimental data: patent publication US10519134B2, “Pyrazole compounds and methods of making and using same” (Lundbeck La Jolla Research Center, Inc., priority 2015, dated 2019)

Key:
FAAH = target: T1, FAAH (Mus musculus, UniProt O08914); assay: In vitro competitive activity-based protein profiling (mouse), FAAH gel band; assay type: biochemical; settings: for IC50: mouse; for inhibition at 1 µM: read-out: FAAH % inh. 1 μM
T1 construct: Proteomes (mouse brain membrane fraction or cell lysates); from tissue; host or cells: mouse brain membrane fraction (or cell lysates)
T1 sequence (O08914 1-579): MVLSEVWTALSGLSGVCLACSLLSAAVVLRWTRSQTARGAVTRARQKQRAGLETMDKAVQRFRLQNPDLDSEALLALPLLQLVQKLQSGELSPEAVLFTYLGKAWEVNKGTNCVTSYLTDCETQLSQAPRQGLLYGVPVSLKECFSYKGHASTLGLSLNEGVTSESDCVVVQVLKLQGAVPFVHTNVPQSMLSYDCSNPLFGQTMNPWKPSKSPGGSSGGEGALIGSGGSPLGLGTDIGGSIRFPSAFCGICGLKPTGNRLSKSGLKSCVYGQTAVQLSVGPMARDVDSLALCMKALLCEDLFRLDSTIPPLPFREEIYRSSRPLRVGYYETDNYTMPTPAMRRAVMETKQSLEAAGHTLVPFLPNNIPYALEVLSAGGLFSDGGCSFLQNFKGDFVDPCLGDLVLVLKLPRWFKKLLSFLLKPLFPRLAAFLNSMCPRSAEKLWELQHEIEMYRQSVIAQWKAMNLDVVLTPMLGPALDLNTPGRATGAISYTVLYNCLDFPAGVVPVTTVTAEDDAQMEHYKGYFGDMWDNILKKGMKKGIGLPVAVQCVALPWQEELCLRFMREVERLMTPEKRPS
Experimental: (§1) In Vitro Competitive Activity-Based Protein Profiling (Mouse).
(§2) Proteomes (mouse brain membrane fraction or cell lysates) (50 μL, 1.0 mg/mL total protein concentration) were preincubated with varying concentrations of inhibitors at 37° C. After 30 min, FP-Rh or HT-01 (1.0 μL, 50 μM in DMSO) was added and the mixture was incubated for another 30 min at 37° C. Reactions were quenched with SDS loading buffer (15 μL—4×) and run on SDS-PAGE. Following gel imaging, serine hydrolase activity was determined by measuring fluorescent intensity of gel bands corresponding to MAGL, ABHD6, and FAAH, using ImageJ 1.43u software.

MAGL = target: T2, MAGL (Mus musculus, UniProt O35678); assay: In vitro competitive activity-based protein profiling (mouse), MAGL gel band; assay type: biochemical; settings: for IC50: mouse; for inhibition at 1 µM: read-out: MAGL % inh. 1 μM
T2 construct: Proteomes (mouse brain membrane fraction or cell lysates); from tissue; host or cells: mouse brain membrane fraction (or cell lysates)
T2 sequence (O35678 1-303): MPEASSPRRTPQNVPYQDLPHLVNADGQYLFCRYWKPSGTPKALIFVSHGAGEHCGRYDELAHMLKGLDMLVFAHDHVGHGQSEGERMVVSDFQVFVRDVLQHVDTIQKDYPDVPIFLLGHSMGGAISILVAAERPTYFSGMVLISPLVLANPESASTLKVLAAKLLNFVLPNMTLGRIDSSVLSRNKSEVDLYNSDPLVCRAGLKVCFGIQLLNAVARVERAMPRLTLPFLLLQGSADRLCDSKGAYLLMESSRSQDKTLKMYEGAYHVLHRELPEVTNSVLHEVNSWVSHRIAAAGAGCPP
Experimental: as §1, §2

## CC(=O)N(C)c1ccn(C(=O)N2CCN(Cc3ccc(C(F)(F)F)cc3N3CCCC3)CC2)n1 [Example 2, N-methyl-N-(1-(4-(2-(pyrrolidin-1-yl)-4-(trifluoromethyl)benzyl)piperazine-1-carbonyl)-1H-pyrazol-3-yl)acetamide]
FAAH
  IC50: 1 to 10 µM
  inhibition at 1 µM: 0 to 25%
MAGL
  IC50: 0.1 to 1 µM
  inhibition at 1 µM: ≥ 75%

## CC(=O)Nc1ccn(C(=O)N2CCN(Cc3ccc(Cl)cc3N3CCC(F)CC3)CC2)n1 [Example 7, N-(1-(4-(4-chloro-2-(4-fluoropiperidin-1-yl)benzyl)piperazine-1-carbonyl)-1H-pyrazol-3-yl)acetamide]
FAAH
  IC50: 1 to 10 µM
  inhibition at 1 µM: 0 to 25%
MAGL
  IC50: ≤ 0.1 µM
  inhibition at 1 µM: ≥ 75%

## CC(=O)Nc1ccn(C(=O)N2CCC3(CCCN3Cc3ccc(C(F)(F)F)cc3N3CCCC3)CC2)n1 [Example 8, N-(1-(1-(2-(pyrrolidin-1-yl)-4-(trifluoromethyl)benzyl)-1,8-diazaspiro[4.5]decane-8-carbonyl)-1H-pyrazol-3-yl)acetamide]
FAAH
  IC50: 1 to 10 µM
  inhibition at 1 µM: 0 to 25%
MAGL
  IC50: ≤ 0.1 µM
  inhibition at 1 µM: ≥ 75%

## CC(=O)Nc1ccn(C(=O)N2CCC3(CCCN3Cc3ccc(Cl)cc3N3CCC(F)(F)CC3)CC2)n1 [Example 11, N-(1-(1-(4-chloro-2-(4,4-difluoropiperidin-1-yl)benzyl)-1,8-diazaspiro[4.5]decane-8-carbonyl)-1H-pyrazol-3-yl)acetamide]
FAAH
  IC50: 1 to 10 µM
  inhibition at 1 µM: 0 to 25%
MAGL
  IC50: 0.1 to 1 µM
  inhibition at 1 µM: ≥ 75%

## CC(=O)Nc1ccn(C(=O)N2CCC3(CCCN3Cc3ccc(Cl)cc3N3CCN(C4CC4)CC3)CC2)n1 [Example 13, N-(1-(1-(4-chloro-2-(4-cyclopropylpiperazin-1-yl)benzyl)-1,8-diazaspiro[4.5]decane-8-carbonyl)-1H-pyrazol-3-yl)acetamide]
FAAH
  IC50: 1 to 10 µM
  inhibition at 1 µM: 0 to 25%
MAGL
  IC50: 0.1 to 1 µM
  inhibition at 1 µM: ≥ 75%

## CCN1CCN(c2cc(Cl)ccc2CN2CCCC23CCN(C(=O)n2ccc(NC(C)=O)n2)CC3)CC1 [Example 15, N-(1-(1-(4-chloro-2-(4-ethylpiperazin-1-yl)benzyl)-1,8-diazaspiro[4.5]decane-8-carbonyl)-1H-pyrazol-3-yl)acetamide]
FAAH
  IC50: 1 to 10 µM
  inhibition at 1 µM: 0 to 25%
MAGL
  IC50: 0.1 to 1 µM
  inhibition at 1 µM: ≥ 75%

## CC(=O)Nc1ccn(C(=O)N2CCC3(CCCN3Cc3ccc(Cl)cc3N3CCOCC3)CC2)n1 [Example 16, N-(1-(1-(4-chloro-2-morpholinobenzyl)-1,8-diazaspiro[4.5]decane-8-carbonyl)-1H-pyrazol-3-yl)acetamide]
FAAH
  IC50: 1 to 10 µM
  inhibition at 1 µM: 0 to 25%
MAGL
  IC50: 0.1 to 1 µM
  inhibition at 1 µM: ≥ 75%

## CC(=O)Nc1ccn(C(=O)N2CCC3(CCCN3Cc3ccc(Cl)cc3N3CC4COCC4C3)CC2)n1 (stereo not drawn) [Example 17, N-(1-(1-(4-chloro-2-(dihydro-1H-furo[3,4-c]pyrrol-5(3H,6H,6aH)-yl)benzyl)-1,8-diazaspiro[4.5]decane-8-carbonyl)-1H-pyrazol-3-yl)acetamide]
FAAH
  IC50: 1 to 10 µM
  inhibition at 1 µM: 0 to 25%
MAGL
  IC50: ≤ 0.1 µM
  inhibition at 1 µM: ≥ 75%

## CC(=O)Nc1ccn(C(=O)N2CCC3(CCCN3Cc3ccc(C(F)(F)F)cc3N3CCCCC3)CC2)n1 [Example 19, N-(1-(1-(2-(piperidin-1-yl)-4-(trifluoromethyl)benzyl)-1,8-diazaspiro[4.5]decane-8-carbonyl)-1H-pyrazol-3-yl)acetamide]
FAAH
  IC50: 1 to 10 µM
  inhibition at 1 µM: 0 to 25%
MAGL
  IC50: ≤ 0.1 µM
  inhibition at 1 µM: ≥ 75%

## CC(=O)Nc1ccn(C(=O)N2CCC3(CCCN3Cc3ccc(C(F)(F)F)cc3N3CCN(S(C)(=O)=O)CC3)CC2)n1 [Example 21, N-(1-(1-(2-(4-(methylsulfonyl)piperazin-1-yl)-4-(trifluoromethyl)benzyl)-1,8-diazaspiro[4.5]decane-8-carbonyl)-1H-pyrazol-3-yl)acetamide]
FAAH
  IC50: 1 to 10 µM
  inhibition at 1 µM: 0 to 25%
MAGL
  IC50: 0.1 to 1 µM
  inhibition at 1 µM: ≥ 75%

## CC(=O)Nc1ccn(C(=O)N2CCC3(CCCN3Cc3ccc(C(F)(F)F)cc3N3CCN(C(C)=O)CC3)CC2)n1 [Example 22, N-(1-(1-(2-(4-acetylpiperazin-1-yl)-4-(trifluoromethyl)benzyl)-1,8-diazaspiro[4.5]decane-8-carbonyl)-1H-pyrazol-3-yl)acetamide]
FAAH
  IC50: 1 to 10 µM
  inhibition at 1 µM: 0 to 25%
MAGL
  IC50: 0.1 to 1 µM
  inhibition at 1 µM: ≥ 75%

## CC(=O)Nc1ccn(C(=O)N2CCC3(CCCN3Cc3ccc(C)c(C(F)(F)F)c3)CC2)n1 [Example 23, N-(1-(1-(4-methyl-3-(trifluoromethyl)benzyl)-1,8-diazaspiro[4.5]decane-8-carbonyl)-1H-pyrazol-3-yl)acetamide]
FAAH
  IC50: 1 to 10 µM
  inhibition at 1 µM: 0 to 25%
MAGL
  IC50: ≤ 0.1 µM
  inhibition at 1 µM: ≥ 75%

## CC(=O)Nc1ccn(C(=O)N2CCC3(CCCN3Cc3ccc(C(F)(F)F)c(Cl)c3)CC2)n1 [Example 24, N-(1-(1-(3-chloro-4-(trifluoromethyl)benzyl)-1,8-diazaspiro[4.5]decane-8-carbonyl)-1H-pyrazol-3-yl)acetamide]
FAAH
  IC50: 1 to 10 µM
  inhibition at 1 µM: 0 to 25%
MAGL
  IC50: ≤ 0.1 µM
  inhibition at 1 µM: ≥ 75%

## CC(=O)Nc1ccn(C(=O)N2CCC3(CCCN3Cc3ccc(Cl)c(C(F)(F)F)c3)CC2)n1 [Example 25, N-(1-(1-(4-chloro-3-(trifluoromethyl)benzyl)-1,8-diazaspiro[4.5]decane-8-carbonyl)-1H-pyrazol-3-yl)acetamide]
FAAH
  inhibition at 1 µM: 25 to 50%
MAGL
  inhibition at 1 µM: ≥ 75%

## CC(=O)Nc1ccn(C(=O)N2CCC3(CCCN3Cc3ccc(C(F)(F)F)cc3N3CCC4(C3)CN(S(C)(=O)=O)C4)CC2)n1 [Example 27, N-(1-(1-(2-(2-(methylsulfonyl)-2,6-diazaspiro[3.4]octan-6-yl)-4-(trifluoromethyl)benzyl)-1,8-diazaspiro[4.5]decane-8-carbonyl)-1H-pyrazol-3-yl)acetamide]
FAAH
  IC50: 1 to 10 µM
  inhibition at 1 µM: 0 to 25%
MAGL
  IC50: ≤ 0.1 µM
  inhibition at 1 µM: ≥ 75%

## CC(=O)Nc1ccn(C(=O)N2CCC3(CCCN3Cc3ccc(C(F)(F)F)cc3N3CCN(C4CC4)CC3)CC2)n1 [Example 30, N-(1-(1-(2-(4-cyclopropylpiperazin-1-yl)-4-(trifluoromethyl)benzyl)-1,8-diazaspiro[4.5]decane-8-carbonyl)-1H-pyrazol-3-yl)acetamide]
FAAH
  IC50: 1 to 10 µM
  inhibition at 1 µM: 0 to 25%
MAGL
  IC50: 0.1 to 1 µM
  inhibition at 1 µM: ≥ 75%

## CC(=O)Nc1ccn(C(=O)N2CCC3(CCCN3Cc3ccc(Cl)cc3N3CCN(S(C)(=O)=O)CC3)CC2)n1 [Example 35, N-(1-(1-(4-chloro-2-(4-(methylsulfonyl)piperazin-1-yl)benzyl)-1,8-diazaspiro[4.5]decane-8-carbonyl)-1H-pyrazol-3-yl)acetamide]
FAAH
  IC50: 1 to 10 µM
  inhibition at 1 µM: 0 to 25%
MAGL
  IC50: 0.1 to 1 µM
  inhibition at 1 µM: ≥ 75%

## CC(=O)Nc1ccn(C(=O)N2CCC3(CCCN3Cc3ccc(Cl)cc3N3CCN(C(C)=O)CC3)CC2)n1 [Example 36, N-(1-(1-(2-(4-acetylpiperazin-1-yl)-4-chlorobenzyl)-1,8-diazaspiro[4.5]decane-8-carbonyl)-1H-pyrazol-3-yl)acetamide]
FAAH
  IC50: 1 to 10 µM
  inhibition at 1 µM: 0 to 25%
MAGL
  IC50: 0.1 to 1 µM
  inhibition at 1 µM: ≥ 75%

## CC(=O)Nc1ccn(C(=O)N2CCN(Cc3ccc(C(F)(F)F)cc3N3CCC(F)(F)CC3)CC2)n1 [Example 46, N-(1-(4-(2-(4,4-difluoropiperidin-1-yl)-4-(trifluoromethyl)benzyl)piperazine-1-carbonyl)-1H-pyrazol-3-yl)acetamide]
FAAH
  IC50: 1 to 10 µM
  inhibition at 1 µM: 0 to 25%
MAGL
  IC50: ≤ 0.1 µM
  inhibition at 1 µM: ≥ 75%

## CS(=O)(=O)Nc1ccn(C(=O)N2CCN(Cc3ccc(C(F)(F)F)c(C4CCN(CC(=O)O)CC4)c3)CC2)n1 [Example 119, 2-(4-(5-((4-(3-(methylsulfonamido)-1H-pyrazole-1-carbonyl)piperazin-1-yl)methyl)-2-(trifluoromethyl)phenyl)piperidin-1-yl)acetic Acid]
MAGL
  IC50: ≤ 0.1 µM
